Results published in patent US7592326B2, “Method for stimulating the immune, inflammatory or neuroprotective response” (priority 2004, dated 2009).

What was measured:
DCs = experiment: Mannose receptor-mediated endocytosis (FITC-dextran uptake); assay type: cell-based, human; conditions: DCs treated 24 h; FIG. 2
Protocol: Mannose receptor (MR)-mediated endocytosis was measured as the cellular uptake of FITC-dextran (DX) and quantified by flow cytometry. A total of 2×10^5 cells per sample were incubated in media containing FITC-DX (1 mg/ml) (Mv 40,000). After 15 min of incubation at 37° C. or 4° C. (as negative control), cells were washed four times with cold PBS containing 1% FCS and 0.01% NaN3 and fixed in 1% formaldehyde. The background (cells pulsed at 4° C.) was always subtracted.

Human immature DCs = experiment: Maturation of human monocyte-derived DCs (surface markers, flow cytometry); assay type: cell-based; conditions: 24 hours
Protocol: Buffy coats were obtained from healthy human volunteers and fractionated over Histopaque-1077. The peripheral blood mononuclear cells (PBMC) layer was recovered and erythrocyte-depleted by incubation in red blood cell lysis buffer for 5 minutes at room temperature. PBMCs were cultured in complete medium (RPMI 1640, 1% L-glutamine, 1% penicillin/streptomycin, and 10% low endotoxin FCS) for 2 hours in T75 flasks (Corning). Following incubation, nonadherent cells were removed by three washes with 1× PBS (Invitrogen, Carlsbad, Calif.). The remaining adherent cells were then cultured in complete medium supplemented with GM-CSF and IL-4 (50 ng/mL each). Human and murine IL-4 and GM-CSF were purchased from Peprotech (Rocky Hill, N.J.). On day 2 and day 4, the DC cultures received an additional dose of GM-CSF and IL-4 (50 ng/mL each). On day 5, non-adherent DC were harvested by gentle pipetting, counted, and plated in fresh medium containing GM-CSF and IL-4 (50 ng/mL each). […]
Surface expression of various markers was assessed using CellQuest analysis software on a FACScalibur (Becton-Dickinson) flow cytometer. Surface expression was determined using the following FITC- and PE-conjugated antibodies: CD86-FITC (Research Diagnostics), CCR7-PE (R&D Systems), CD80-FITC, CD83-FITC, HLA-DR-FITC (BD Pharmingen). The isotype control antibodies were used accordingly in all experiments and were purchased from Pharmingen. Human DC were incubated in 1% human AB serum/PBS and were incubated with rat anti-CD16/CD32 (BD Phamingen) to block non-specific binding. Total RNA was extracted using the RNeasy kit according to the manufacturer's protocol (Qiagen). […] Emitted fluorescence for each reaction was measured during the annealing/extension phase, and amplification plots were analyzed using the MX4000 software version 3.0 (Stratagene). Quantity values (i.e., copies) for gene expression were generated by comparison of the fluorescence generated by each sample with standard curves of known quantities. Next, the calculated number of copies was divided by the number of copies of the housekeeping gene GAPDH.

[1] = system: C. albicans strain SC5314; experiment: Systemic C. albicans infection in mice (proposed); assay type: in vivo, Candida albicans; conditions: A/J and C57BL/6J mice, 3×10^5 blastospores i.v.
Protocol: To show the efficacy of c-di-GMP in inhibiting C. albicans infection, 8- to 12-week-old A/J and C57BL/6J mice are infected with C. albicans strain SC5314. The blastospores are washed twice in phosphate-buffered saline (PBS) and resuspended in PBS at the required density. For experimental infections, A/J and C57BL/6J mice are inoculated via the tail vein with 200 μl of a suspension containing 3×10^5 C. albicans blastospores in PBS. One group of mice will be pretreated with c-di-GMP (intranasally, i.p., i.m., s.q.). Mice are to be closely monitored for clinical signs of disease, such as lethargy, loss of appetite, hunched back, and ruffled fur.
The levels of TNF-α and IL-6 in tissue extracts are determined using “two-site sandwich” assays with commercially available enzyme-linked immunosorbent assay (ELISA) kits (BD Biosciences). Tissue extracts are prepared by homogenization in lysis buffer (20 mM Tris [pH 7.5], 0.3 M NaCl, 2% sodium deoxycholate, 2% Triton X-100, protease inhibitor cocktail [Roche Diagnostics]). Additional determinations of the levels of 32 cytokines and chemokines are carried out by using cardiac tissue extracts and RayBio mouse cytokine array II membranes (RayBiotech Inc., Norcross, Ga.). […] All values are normalized to the protein content and determined using the Bradford reagent.

C. neoformans strain 52 = experiment: Murine model of C. neoformans infection (proposed procedure)

SMILES: Nc1nc(=O)c2ncn([C@@H]3OC4COP(=O)(O)O[C@H]5[C@@H](O)[C@H](n6cnc7c(=O)nc(N)[nH]c76)O[C@@H]5COP(=O)(O)OC4C3O)c2[nH]1 (stereo partly drawn) [c-di-GMP, Bis(3′→5′)-cyclic diguanylic acid]
- uptake of FITC-DX (MR-mediated endocytosis) (DCs): did not induce any major effect
- CD83 expression, net MFI (Human immature DCs; 200 uM c-di-GMP or LPS (positive control), untreated net MFI=4.89, FIG. 10A): 63.34
- expression of maturation markers CD80, CD86, CCR7, and MHC class II (Human immature DCs; 200 uM, FIG. 10C): increase
- concentration at which significant increases in surface CD83 begin (Human immature DCs; 5 to 500 uM, FIG. 10B): 32 µM
- clinical outcome [1]: less mortality
- pathogen burden compared with controls (C. neoformans strain 52; C57BL/6 mice): significantly reduced
- pulmonary eosinophilia (C. neoformans strain 52; C57BL/6 mice): significantly reduced
- IFN production and total numbers of CD4^+/IFN-γ^+ cells (C. neoformans strain 52; lung, C57BL/6 mice): increased
- survival (C. neoformans strain 52; oral, intranasal, i.p., i.v., s.q., or i.m. administration): increase survival
